Data on five compounds can be found in article PMC5564600 (Oncotarget, 2017).

Assay [1] addresses T1, MAP4K2 (Homo sapiens, UniProt Q12851).
T1 construct: purchased Ambit Biosciences (scanMAXX KINOMEscan)
T1 sequence (Q12851 1-820): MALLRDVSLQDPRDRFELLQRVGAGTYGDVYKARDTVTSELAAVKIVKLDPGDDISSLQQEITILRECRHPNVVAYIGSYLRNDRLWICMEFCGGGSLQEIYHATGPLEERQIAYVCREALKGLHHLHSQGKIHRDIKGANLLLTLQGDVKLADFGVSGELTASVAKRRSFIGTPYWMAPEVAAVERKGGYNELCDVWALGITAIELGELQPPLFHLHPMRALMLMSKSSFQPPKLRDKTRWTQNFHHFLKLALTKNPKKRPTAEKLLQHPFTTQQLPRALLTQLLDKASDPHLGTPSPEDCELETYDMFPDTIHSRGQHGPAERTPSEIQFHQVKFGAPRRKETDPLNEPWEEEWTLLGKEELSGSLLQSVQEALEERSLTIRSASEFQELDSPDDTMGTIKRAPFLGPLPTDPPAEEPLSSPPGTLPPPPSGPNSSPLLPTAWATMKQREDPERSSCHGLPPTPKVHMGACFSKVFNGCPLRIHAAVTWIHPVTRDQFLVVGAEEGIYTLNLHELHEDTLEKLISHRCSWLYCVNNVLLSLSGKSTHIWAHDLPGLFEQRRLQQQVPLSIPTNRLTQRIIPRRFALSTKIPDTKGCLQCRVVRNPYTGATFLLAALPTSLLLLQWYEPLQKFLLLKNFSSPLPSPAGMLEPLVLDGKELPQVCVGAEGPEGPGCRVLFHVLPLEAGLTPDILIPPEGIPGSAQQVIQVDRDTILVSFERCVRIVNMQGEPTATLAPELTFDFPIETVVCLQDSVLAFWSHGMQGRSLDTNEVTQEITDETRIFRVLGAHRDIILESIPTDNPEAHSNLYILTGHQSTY
In words: KINOMEscan, MAP4K2. It is filed as binding. Particulars: for remaining binding at 1 µM / remaining binding at 10 µM: kinase MAP4K2; for remaining binding at 1 µM: read-out: % of control at 1 µM; for remaining binding at 10 µM: read-out: % of control at 10 µM.

Assay [2] concerns the target T2, PIK4CB (Homo sapiens, UniProt Q9UBF8).
T2 construct: purchased Ambit Biosciences (scanMAXX KINOMEscan)
In words: KINOMEscan, PIK4CB. It is filed as binding. The settings on record: for remaining binding at 1 µM: read-out: % of control at 1 µM; for remaining binding at 10 µM: read-out: % of control at 10 µM.

Assay [3] deals with panel of 442 kinases (Homo sapiens, UniProt P42336, C420R). The experiment in a line: biochemical. It counts as binding. The settings on record: kinase PIK3CA(C420R); 1 µM; read-out: % of control at 1 µM.
Assay [4] addresses panel of 442 kinases (Homo sapiens, UniProt P42336, E542K). In words: biochemical. It counts as binding. The settings on record: kinase PIK3CA(E542K); 1 µM; read-out: % of control at 1 µM.
Assay [5] has as its target panel of 442 kinases (Homo sapiens, UniProt P42336, E545A). In words: biochemical. It is filed as binding. The settings on record: kinase PIK3CA(E545A); 1 µM; read-out: % of control at 1 µM.
The target of assay [6] is panel of 442 kinases (Homo sapiens, UniProt P42336, E545K). The experiment in a line: biochemical. It counts as binding. Particulars: kinase PIK3CA(E545K); 1 µM; read-out: % of control at 1 µM.
For assay [7], the target named is panel of 442 kinases (Homo sapiens, UniProt P42336, H1047L). In words: biochemical. It counts as binding. The settings on record: kinase PIK3CA(H1047L); 1 µM; read-out: % of control at 1 µM.
The target in assay [8] is panel of 442 kinases (Homo sapiens, UniProt P42336, H1047Y). In words: biochemical. It is filed as binding. Particulars: kinase PIK3CA(H1047Y); 1 µM; read-out: % of control at 1 µM.
In assay [9] the target is panel of 442 kinases (Homo sapiens, UniProt P42336, I800L). In words: biochemical. It is filed as binding. Particulars: kinase PIK3CA(I800L); 1 µM; read-out: % of control at 1 µM.
The target in assay [10] is panel of 442 kinases (Homo sapiens, UniProt P42336, M1043I). In words: biochemical. It counts as binding. The settings on record: kinase PIK3CA(M1043I); 1 µM; read-out: % of control at 1 µM.
For assay [11], the target named is mTOR (Homo sapiens, UniProt P42345). The experiment in a line: SelectScreen Z'LYTE kinase assay (Invitrogen), mTOR. It is filed as biochemical. The settings on record: determined by Invitrogen, mean ± SEM, n=2.
Assay [12] has as its target panel of 442 kinases (Homo sapiens, UniProt Q16584). In words: biochemical. It counts as binding. The settings on record: kinase MLK3; 1 µM; read-out: % of control at 1 µM.
Assay [13] has as its target PI3Kγ (Homo sapiens, UniProt P48736). The experiment in a line: PI3K (human) HTRF assay, PI3Kγ. It is filed as biochemical. Particulars: ATP 10 μM, mean ± SEM. (In TR-FRET formats the signal depends on donor and acceptor labels being close together.)
For assay [14], the target named is panel of 442 kinases (Homo sapiens, UniProt P42336). In words: biochemical. The settings on record: kinase PIK3CA; 1 µM; read-out: % of control at 1 µM. It is filed as binding.
Assay [15] deals with panel of 442 kinases (Homo sapiens, UniProt P42336, Q546K). In words: biochemical. It is filed as binding. The settings on record: kinase PIK3CA(Q546K); 1 µM; read-out: % of control at 1 µM.

The structures appear in SMILES notation. Where two headings read alike, the source gives them in different places.

As for `Nc1cc(C(F)(F)F)c(-c2cc(N3CCOCC3)nc(N3CCOCC3)n2)cn1` [Buparlisib], the remaining binding at 1 µM in assay [1] was determined as 82%; in assay [2] (kinase PIK4CB, 1 µM) it was 86%. The remaining binding at 10 µM in assay [1] and in [2] (kinase PIK4CB) was 100% in each case.
As usually defined, the inhibition is the drop in the measured response relative to a control, in per cent. Low readings indicate little suppression, high ones strong suppression. Consider `Cn1c(=O)n(-c2ccc(C(C)(C)C#N)cc2)c2c3cc(-c4cnc5ccccc5c4)ccc3ncc21` [Dactolisib, 2-methyl-2-[4-(3-methyl-2-oxo-8-quinolin-3-yl-2,3-dihydroimidazo[4,5-c]quinolin-1-yl)-phenyl] propionitrile], for which the remaining activity at 1 µM in [3] was 8.1%; in assay [4], 6.4%; in assay [5] it was 9.2%; in assay [6] it was 5.5%; in assay [7], 0.15%; in assay [8], 3.8%. The figures for the remaining activity at 1 µM in assay [9] and in assay [10] were 0% and 1.4%, respectively. In addition, in [1] (1 μM), the inhibition at 1 µM is > 80%. The figures for the remaining binding at 1 µM in assay [1] and in assay [2] were 0.25% and 64%, respectively.
A word on the IC50: it is the concentration at which inhibition is half-maximal. The low end stands for inhibition by little substance, the high end for a need for much substance. Regarding `FC(F)c1nc2ccccc2n1-c1nc(N2CCOCC2)nc(N2CCOCC2)n1` [ZSTK474, 2-(difluoromethyl)-1-[4,6-di(4-morpholinyl)-1,3,5-triazin-2-yl]-1H-benzimidazole], in assay [11], the IC50 was determined as 102 ± 19 nM. The remaining activity at 1 µM in assay [12] was found to be 56%. The remaining binding at 1 µM amounted to 85% in assay [1] and 84% in assay [2] (kinase PIK4CB, 1 µM).
For the compound `CS(=O)(=O)N1CCN(Cc2cc3nc(-c4cccc5[nH]ncc45)nc(N4CCOCC4)c3s2)CC1` [Pictilisib, 2-(1H-indazol-4-yl)-6-(4-methanesulfonyl-piperazin-1-ylmethyl)-4-morpholin-4-yl-t hieno[3,2-d]pyrimidine], the remaining binding at 1 µM in [1] turned out to be 100%; in assay [2] (kinase PIK4CB, 1 µM), 100%. Moreover, the remaining binding at 10 µM was found to be 61% in [1] and 75% in assay [2] (kinase PIK4CB).
In the case of `COc1ncc(-c2ccc3nccc(-c4ccnnc4)c3c2)cc1NS(=O)(=O)c1ccc(F)cc1F` [Omipalisib], in [13], it took 1.2 ± 0.2 nM to reach half-maximal inhibition (IC50). The remaining activity at 1 µM in assay [14] worked out at 0%; in [3] it was 0%; in [4], 0.05%; in [5], 0%; in [6] it was 0.1%; in assay [7], 5.6%. For the same compound, the remaining activity at 1 µM in assay [8] came to 0%; in assay [9] it was 3.8%; in assay [10], 0%; in [15] it was 0.1%. The remaining binding at 1 µM stood at 100% in assay [1] and 0.7% in [2] (kinase PIK4CB, 1 µM). Besides, the “off-target binding to PIK4CB” value in assay [2] (1 μM) is “non-selective”.
